The record followed here is patent US6620828B2, “Thiazole compounds and pharmaceutical compositions for inhibiting protein kinases and methods for their use” (Agouron Pharmaceuticals, Inc., priority 1999, dated 2003).

Data set [1] deals with CDK2/Cyclin A complex (Homo sapiens, UniProt P24941). Description: CDK2/Cyclin A assay. In kind it is biochemical. The conditions noted are these: Table 2. Put shortly:
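Radiometric assay: 150 nM CDK2/cyclin A (insect-cell CDK2, truncated cyclin A) phosphorylates His-tagged Rb fragment (residues 386-928) with 25 μM ATP plus [32P]ATP, pH 7.4 HEPES, 2% DMSO, 30 °C for 20 min. Filter-captured product counted by phosphorimager; apparent Ki from competitive or tight-binding inhibition fits.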

In data set [2] the target is T1, FAKcd409 (Homo sapiens, UniProt Q05397, P410T).
T1 construct: comprises residues methionine 409 to glutamate 689; made in house; host or cells: baculovirus vector expression system
Description: FAK HTS assay. The conditions noted are these: 10 uM compound, HTS Delphia assay. In kind it is biochemical.

For data set [3], the target named is T2, CHK1 (Homo sapiens, UniProt O14757).
T2 sequence (O14757 1-476): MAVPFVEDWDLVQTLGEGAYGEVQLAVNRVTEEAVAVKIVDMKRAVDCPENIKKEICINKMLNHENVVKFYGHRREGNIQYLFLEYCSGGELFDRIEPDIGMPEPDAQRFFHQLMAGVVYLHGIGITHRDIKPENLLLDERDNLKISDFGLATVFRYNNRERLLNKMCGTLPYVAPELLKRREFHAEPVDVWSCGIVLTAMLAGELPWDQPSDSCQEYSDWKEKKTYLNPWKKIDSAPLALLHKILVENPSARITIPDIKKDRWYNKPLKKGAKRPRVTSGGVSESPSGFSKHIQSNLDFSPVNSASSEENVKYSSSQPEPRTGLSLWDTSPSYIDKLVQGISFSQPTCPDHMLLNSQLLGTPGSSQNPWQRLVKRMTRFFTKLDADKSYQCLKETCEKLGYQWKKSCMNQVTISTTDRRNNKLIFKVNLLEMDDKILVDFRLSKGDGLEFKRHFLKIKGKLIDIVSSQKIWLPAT
Put plainly: CHK1 high-throughput screening. In kind it is biochemical. The conditions noted are these: for % inhibition @ 20 μM: Table 4, repeated entries per example; for inhibition at 20 µM: read-out: % inhibition @ 20 μM, Table 4, repeated entries per example.

Data set [4] deals with T3, phosphorylated VEGF-R2Δ50 (Homo sapiens, UniProt P35968, DEL940-989/E990V).
T3 construct: VEGF-R2Δ50 contains residues 806-939 and 990-1171; made in house; host or cells: baculovirus/insect cells
Description: VEGF-R2 ELISA assay. Type of data set: biochemical. The following applies: Table 2; * determined with ELISA assay; read-out: FLVK-P Ki. Summed up: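 Pre-autophosphorylated human VEGF-R2Δ50 (residues 806-939/990-1171, E990V; baculovirus) at 0.8 nM was run with 2 μM biotin-gastrin(1-17), 20 μM ATP, 26 mM MgCl2, 2 mM MnCl2, pH 7.5 Hepes. Phosphopeptide was captured on streptavidin and detected by anti-pTyr-HRP/ABTS at 405 nm; Ki came from activity at varying compound concentrations.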
Background: ELISA stands for enzyme-linked immunosorbent assay.

In data set [5] the target is T4, CDK4/Cyclin D3 complex (Homo sapiens, UniProt P11802).
T4 construct: made in house; host or cells: insect cells co-infected with baculovirus vectors
Description: CDK4/Cyclin D assay. Type of data set: biochemical. The conditions noted are these: Table 2. Summed up:
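Insect-cell-expressed CDK4/cyclin D3 (50 nM) phosphorylating His-tagged Rb fragment (residues 386-928) with 25 μM [^32P]ATP in HEPES pH 7.4, MgCl2, 2% DMSO; 20 min at 30 °C, EDTA stop. Filter-captured 32P by phosphorimager; apparent Ki from competitive or tight-binding inhibition fits.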

The target of data set [6] is T5, FL-CHK1 (Homo sapiens, UniProt O14757).
T5 construct: C-terminally His-tagged full-length human CHK1 (FL-CHK1); 6xHis (C); made in house; host or cells: baculovirus/insect cells
T5 sequence (O14757 1-476): T2 sequence (O14757 1-476)
Put plainly: CHK1 assay. Type of data set: biochemical. The conditions noted are these: Table 2; read-out: CHK-1 Ki. Summed up: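 Full-length human CHK1 with C-terminal 6×His tag, made in baculovirus/insect cells, 10 nM, phosphorylating 0.125 mM Syntide-2 with 0.15 mM ATP in 50 mM Tris pH 7.5, 25 mM MgCl2, 400 mM NaCl. PK/LDH-coupled NADH oxidation read at 340 nm. Ki from initial rates over varied compound concentrations.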

The target of data set [7] is T6, phosphorylated VEGF-R2Δ50 (FLVK-P) (Homo sapiens, UniProt P35968, DEL940-989/E990V).
T6 construct: VEGF-R2Δ50 contains residues 806-939 and 990-1171; made in house; host or cells: baculovirus/insect cells
Put plainly: VEGF-R2 coupled spectrophotometric (FLVK-P) assay. Type of data set: biochemical. The following applies: Table 2; spectrophotometric assay. Summed up:
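Baculovirus-expressed human VEGF-R2Δ50 (residues 806-939/990-1171, E990V) was autophosphorylated with 3 mM ATP, 40 mM MgCl2 for 2 h at 4° C. ADP formation was coupled via PK/LDH to NADH oxidation, read at 340 nm, with 5.1 mM poly(E4Y1), 1 mM ATP, 25 mM MgCl2, Hepes pH 7.5. Ki came from activity across compound concentrations.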

Values joined by “and” are separate entries in the source; they are usually repeats but may differ in a detail not shown here. Identical values can stand only once.

T4 sequence (P11802 whole entry): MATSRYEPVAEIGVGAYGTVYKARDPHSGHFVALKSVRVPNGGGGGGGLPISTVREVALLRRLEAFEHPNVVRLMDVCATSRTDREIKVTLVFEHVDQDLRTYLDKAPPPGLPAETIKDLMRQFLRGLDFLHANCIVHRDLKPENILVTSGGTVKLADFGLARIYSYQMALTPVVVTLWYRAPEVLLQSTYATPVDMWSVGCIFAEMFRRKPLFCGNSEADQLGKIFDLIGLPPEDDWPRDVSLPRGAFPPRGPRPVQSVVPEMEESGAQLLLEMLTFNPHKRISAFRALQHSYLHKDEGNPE
T4 sequence (P30281 whole entry partner): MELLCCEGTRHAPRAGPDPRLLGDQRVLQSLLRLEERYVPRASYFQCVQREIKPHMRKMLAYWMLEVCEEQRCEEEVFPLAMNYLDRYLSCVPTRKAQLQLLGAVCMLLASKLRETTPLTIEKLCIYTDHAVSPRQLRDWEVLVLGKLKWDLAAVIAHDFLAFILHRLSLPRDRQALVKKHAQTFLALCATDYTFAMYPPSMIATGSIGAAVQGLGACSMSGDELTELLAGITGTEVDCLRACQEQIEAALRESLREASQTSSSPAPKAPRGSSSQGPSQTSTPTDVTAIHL
T1 sequence (Q05397 409-689 P410T): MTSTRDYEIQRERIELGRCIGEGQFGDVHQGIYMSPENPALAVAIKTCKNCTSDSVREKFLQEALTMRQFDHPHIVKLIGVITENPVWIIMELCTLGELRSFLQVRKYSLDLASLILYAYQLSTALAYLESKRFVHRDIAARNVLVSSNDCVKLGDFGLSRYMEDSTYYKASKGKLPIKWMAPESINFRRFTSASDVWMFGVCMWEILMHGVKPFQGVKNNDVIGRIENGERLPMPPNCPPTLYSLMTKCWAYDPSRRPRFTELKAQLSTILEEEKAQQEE
T3 sequence (P35968 with tags, fused parts or gaps DEL940-989/E990V limits assumed): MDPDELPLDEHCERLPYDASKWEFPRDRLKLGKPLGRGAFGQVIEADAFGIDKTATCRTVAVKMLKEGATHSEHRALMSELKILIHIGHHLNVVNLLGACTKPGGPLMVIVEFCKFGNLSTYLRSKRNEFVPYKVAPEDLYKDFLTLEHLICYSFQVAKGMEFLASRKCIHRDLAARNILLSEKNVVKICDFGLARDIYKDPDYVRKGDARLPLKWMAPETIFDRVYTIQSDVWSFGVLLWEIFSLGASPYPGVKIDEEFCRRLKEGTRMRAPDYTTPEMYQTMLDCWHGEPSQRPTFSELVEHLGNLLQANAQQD
T6 sequence (P35968 with tags, fused parts or gaps DEL940-989/E990V limits assumed): as above

As for `Nc1nc(Nc2ccc(S(N)(=O)=O)cc2)sc1-c1nc(/C=C/C=C/c2ccccc2)cs1` [A(66), 4-[4′-Amino-4-(4-phenyl-buta-1,3-dienyl)-[2,5′]bithiazolyl-2′-ylamino]-benzenesulfonamide], the melting point is 193 to 195 °C (dec.). The Ki in data set [1] is 1100 nM. The “% inhibition of FAK” value in data set [2] (10 µM) was −38% and −39%. Moreover, the “% inhibition @ 20 μM” value in data set [3] is 3.6% and 6.6% and 9.1%.

As to `COc1cc(Nc2nc(N)c(-c3nc(-c4cccc(C(=O)Nc5ccc6nc(C)ccc6c5)c4)cs3)s2)cc(OC)c1OC` [A(35), 3-[4′-Amino-2′-(3,4,5-trimethoxy-phenylamino)-[2,5′]bithiazolyl-4-yl]-N-(2-methyl-quinolin-6-yl)-benzamide], the Ki in data set [4] was determined as 390000 nM. The “% inhibition of FAK” value in data set [2] (10 µM) was −5% and −9% and −10%.

In the case of `COc1ccccc1-c1csc(-c2sc(Nc3ccc(S(N)(=O)=O)cc3)nc2N)n1` [A(3), 4-[4′-Amino-4-(2-methoxy-phenyl)-[2,5′]bithiazolyl-2′-ylamino]-benzenesulfonamide], the melting point was 231 to 235 °C (dec.). Further, in data set [4], the inhibitory constant (Ki) was determined as 64000 nM. In data set [1], the Ki came out at 2500 nM. Moreover, the inhibitory constant (Ki) in data set [5] stood at 8400 nM. In addition, in data set [2], the “% inhibition of FAK” value is −9%. The “% inhibition @ 20 μM” value in data set [3] was 2.8% and −1.9%.

Regarding `C=CCOc1cc(O)cc(-c2csc(-c3sc(Nc4ccc(S(N)(=O)=O)cc4)nc3N)n2)c1` [A(62), 4-[4-(3-Allyloxy-5-hydroxyphenyl)-4′-amino-[2,5′]bithiazolyl-2′-ylamino]-benzenesulfonamide], the melting point is 200 to 202 °C. In addition, the inhibition constant (Ki) in data set [1] is 530 nM. Moreover, in data set [5], the Ki was 4400 nM. Further, the inhibition at 10 µM in data set [2] was 7%. The “% inhibition of FAK” value in data set [2] (10 µM) stood at 6%. Further, in data set [3], the “% inhibition @ 20 μM” value worked out at 12.2% and the inhibition at 20 µM came to 7.4%.

For the compound `COc1cc(Nc2nc(N)c(-c3nc(-c4cc(O)ccc4O)cs3)s2)cc(OC)c1OC` [A(25), 2-(4′-Amino-2′-(3,4,5-trimethoxy-phenylamino)-[2,5′]bithiazolyl-4-yl]-benzene-1,4-diol], the melting point is 208 to 212 °C (dec.). Moreover, the inhibitory constant (Ki) in data set [4] came out at 100 nM. For the same compound, the inhibitory constant (Ki) in data set [6] is 290 nM. Also, the “% inhibition of FAK” value in data set [2] (10 µM) is 60% and 47% and 57% and 90% and 88%. Also, the inhibition at 20 µM in data set [3] was found to be 19.7%.

On to `Nc1nc(Nc2ccc(S(N)(=O)=O)cc2)sc1-c1nc(C(=O)c2ccccc2)cs1` [A(67), 4-(4′-Amino-4-benzoyl-[2,5′]bithiazolyl-2′-ylamino)-benzenesulfonamide], for which the melting point was 255 to 260 °C (dec.). Moreover, the inhibition constant Ki in data set [7] is 110 nM. Further, in data set [1], the Ki turned out to be 15 nM. For the same compound, in data set [5], the Ki worked out at 670 nM. Besides, the “% inhibition of FAK” value in data set [2] (10 µM) was −29% and −33%.

For `COc1ccc(/C=C/c2csc(-c3sc(Nc4ccc(S(N)(=O)=O)cc4)nc3N)n2)cc1O` [A(65), 4-{4′-Amino-4-[2-(3-hydroxy-4-methoxy-phenyl)-ethenyl]-[2,5′]bithiazolyl-2′-ylamino}-benzenesulfonamide], the melting point was 190 to 193 °C (dec.). Besides, the inhibition constant (Ki) in data set [1] stood at 150 nM. The Ki in data set [5] was 2100 nM. In addition, the “% inhibition of FAK” value in data set [2] (10 µM) was −31% and −39%. Besides, the “% inhibition @ 20 μM” value in data set [3] was 3.2% and 2.5% and 8.2%.

`COc1cc(Nc2nc(N)c(-c3nc(-c4ccc(F)cc4F)cs3)s2)cc(OC)c1OC` [A(9), 4-(2,4-Difluoro-phenyl)-N^2′-(3,4,5-trimethoxy-phenyl)-[2,5′]bithiazolyl-2′,4′-diamine]: the melting point was 180 to 183 °C (dec.). The Ki in data set [4] was 1900 nM. Moreover, the “CDK2 % inhibition @ 100” value in data set [1] (at 100 (printed 100 or 100 μM)) came to 29% @. Besides, in data set [5] (at 100 (printed 100 or 100 μM)), the inhibition at 100 µM is below 0%. The “% inhibition of FAK” value in data set [2] (10 µM) is −6% and −5% and 4%.

A word on the Ki: it is a dissociation constant, usually derived from enzyme kinetics or from competition with a known ligand. What is called melting point is the temperature of the solid-liquid transition. For orientation: inhibition means the drop in the measured response relative to a control, in per cent.
